Test results: patent US6900041B2, “Methods and compositions for the treatment of inflammatory diseases” (Reddy US Therapeutics Inc., priority 2000, dated 2005)

Tests used:
Format in all cases: cell-based, human
[1] = system: GSK-3β expression; experiment: RT-PCR of GSK-3β in endothelial cells; conditions: endothelial cells (HMVEC); TNFα 10 ng/ml or AGE 100 μg/ml; 8 hours; vs control
Experimental: HMVEC cells were treated with control medium or medium containing 10 ng/ml TNFα or 100 μg/ml glycated-HSA for 24 hrs. All treatments and controls were carried out in serum free media containing 0.2% albumin. Cells were collected into cold PBS using a cell scraper and used for RNA isolation.
Endothelial cells were incubated in media alone (control) or media containing TNFα (10 ng/ml) or AGE (100 μg/ml) for 8 hours. Poly (A) RNA was isolated and used as template for RT-PCR. Poly (A)+RNA was isolated from confluent cultures of HMVEC incubated under various conditions, using the Micropoly (A) pure kit (Ambion). RT-PCR with Superscript First-strand synthesis system (BRL) was performed according to the manufacture's instructions. […] 2: [sequence], representing a 406 bp region (from 519-925) in the coding sequence of GSK-3β (GSK-3β GenBank Accession No. L33801). […] PCR was carried out by using an initial denaturing step at 96° C. for 5 min, then cycle 35-times (or 25 times for quantitative RT-PCR) between 96° C. for 1 min, 58° C. for 45 sec, and 72° C. for 2 min. […] Samples (10 μl) were analyzed on a 1% agarose gel and stained with ethidium bromide and visualized by UV Tran illuminator (UIVP).

[2] = system: IL-6 production by endothelial cells; experiment: IL-6 ELISA of endothelial cell media
Experimental: Human aortic (HAEC) and microvascular (HMVEC) endothelial cells (Clonetics) were cultured and subcultured according to manufacturer in growth medium (Clonetics): basal medium containing hEGF, hydrocortisone, VEGF, HFGF-B (w/heparin), long R3-IGF-1, Ascorbic acid, gentamicin/amphotericin and 5% FBS. These cell were allowed to reach >90% confluency before being subjected to experimental treatments. […] Tumor necrosis factor α was from R&D Systems. Cells were incubated with 20 mM lithium (as LiCl or with 20 mM KCl as control) in the presence or absence of TNFα (10 ng/ml). Insulin (1 nM) was also used to inhibit GSK-3β.
HMVEC cells were treated with control medium or medium containing 10 ng/ml TNFα or 100 μg/ml glycated-HSA for 24 hrs. All treatments and controls were carried out in serum free media containing 0.2% albumin. […]
IL-6 ELISA was carried out using human IL-6 DuoSet ELISA development kit as described by manufacturer (R&D Systems). […] Color development was read at 450 nm in a microplate reader. […]
Following 24 h transfection, the cells were incubated for 24 h with medium alone or medium containing 300 μg/ml glycated albumin (AGE) or medium containing 10 ng/ml TNF-α. IL-6 and MCP-1 were determined by ELISA, as shown in Examples 2 and 3.
Empty vectors or vectors carrying alkaline phosphatase were used as controls. […] IL-6 and MCP-1 were determined by ELISA as described in Examples 2 and 3.

[3] = system: VCAM-1 expression; experiment: VCAM-1 ELISA on endothelial cell monolayers; conditions: 24 h
Experimental: HMVEC cells were treated with control medium or medium containing 10 ng/ml TNFα or 100 μg/ml glycated-HSA for 24 hrs. All treatments and controls were carried out in serum free media containing 0.2% albumin. Following treatment, cell media were collected and used for IL-6, MCP-1 ELISA and cells were used for VCAM-1 ELISA which was conducted in situ without lysis. Inhibition of GSK-3β altered inflammation-related adhesion molecule expression. VCAM-1 is an endothelial adhesion molecule that facilitates monocyte infiltration into the blood vessel (3). Cells were treated as described in Example 2. Endothelial cells were exposed to KCl (10 mM, as a control) or with TNFα (10 ng/ml); LiCl (10 mM) alone and with TNFα (10 ng/ml), insulin (1 nM) alone or with TNFα (10 ng/ml). Following incubation for 24 h, […] assayed for VCAM-1 by ELISA. VCAM-1 ELISA was performed on monolayers of endothelial cells in 96 well plates. Wells were incubated with 100 μl of 1:1000 dilution of primary antibody (polyclonal goat anti-human VCAM-1 from R&D Systems) in medium containing 10% FBS. A rabbit anti-goat IgG-HRP was used as secondary antibody and ELISA was performed as described for MCP-1 above.

[4] = system: GSK-3β expression; experiment: GSK-3β immunoblotting (Western blot, densitometry) of endothelial cells; conditions: 24 hours
Experimental: GSK-3β-immunoblotting analyses of endothelial cells treated with different inflammatory and non-inflammatory agents were performed.
Cells were treated as taught in Examples 1 and 2. Endothelial cells were incubated with an agent for 24 hours. […] After incubation, the cells were washed, lysed and separated by polyacrylamide gel electrophoresis. Western blotting was performed, using antibody directed to GSK-3β, and detected.

[5] = system: GSK-3β promoter; experiment: GSK-3β promoter-luciferase reporter assay in transfected BAEC; conditions: TNFα 10 ng/ml, 24-48 hours
Experimental: pGL3-GSK3B−1478/+534 was transfected into bovine aortic endothelial cells (BAEC) by electroporation. Transfected cells were aliquoted into 96 well plates and allowed to recover in full media for 16-24 hours. […] Luciferase activity was measured in cell lysates using Bright-Glo Luciferase Assay System (Promega).

[6] = system: MCP-1 production by endothelial cells; experiment: MCP-1 ELISA of endothelial cell media; conditions: 24 h
Experimental: MCP-1 ELISA was carried out using Quantikine Human MCP-1 kit as described by manufacturer (R&D Systems). Mouse anti-human MCP-1 was used as the capture antibody and HRP-conjugated goat anti-human MCP-1 was used as the detection antibody. Culture media were incubated with capture antibody (in 96 well) for 2 h at room temperature. Wells were washed three times with wash buffer (0.05% Tween-20 in PBS followed by incubation with detection antibody for 2 h at room temperature. Color development was read at 450 nm in a microplate reader.
Endothelial cells, as grown in Example 1 and 2, were transfected with oligonucleotides using Cytofectin transfection reagent. […] IL-6 and MCP-1 were determined by ELISA, as shown in Examples 2 and 3.
Inhibition of GSK-3β led to […] inflammatory gene expression in endothelial cells. Overexpression of GSK-3β protein inhibited inducible inflammatory gene expression in endothelial cells. Full length GSK-3β cDNA was cloned into a retroviral vector pLIB. Empty vectors or vectors carrying alkaline phosphatase were used as controls. Retroviral particles carrying different genes were generated in HEK-293 cells. […] IL-6 and MCP-1 were determined by ELISA as described in Examples 2 and 3.

TNFα
intensity of the 406 bp GSK-3β RT-PCR band [1]: decreased
increase in IL-6 secretion ([2]; TNFα 10 ng/ml alone, 24 h): greater than 10 fold
induction of IL-6 expression ([2]; endothelial cells transduced with control vector): 10 fold
VCAM-1 expression, % of basal levels ([3]; TNFα 10 ng/ml alone): 340%
decrease of GSK-3β expression ([4]; TNF-α 10 ng/ml, AGE 300 μg/ml, oxidized LDL 100 μg/ml, IL-1β 1 ng/ml): 70%
decrease of GSK-3β promoter activity (luciferase) [5]: greater than 50%

VEGF
induction of GSK-3β expression ([4]; VEGF 10 ng/ml): ~2 fold

insulin: known inhibitor of GSK-3β
increase of MCP-1 ([6]; added together with AGE 300 μg/ml, LiCl 10 mM or insulin 1 nM): approximately 2.8 fold
increase of MCP-1 secretion ([6]; agent alone (LiCl 10 mM, insulin 1 nM), vs 10 mM KCl (about 400 pg/ml)): about 50%
effect on VCAM expression ([3]; agent alone (LiCl 10 mM, insulin 1 nM)): did not significantly affect
effect on TNFα-induced VCAM-1 expression ([3]; insulin 1 nM together with TNFα 10 ng/ml, vs TNFα alone): almost doubled the effect of TNFα alone
